Results on 2 compounds are retold here after patent US11725036B2, “Modified lipidated relaxin B chain peptides and their therapeutic use” (Sanofi, priority 2018, dated 2023).

Marks after values point to notes of the source that are not given here. Starred links: 1 amine or outer side, 2 acyl side, 3 side chain; linkers in the order of their positions; H or OH if unused. Non-standard residues stand in square brackets, D forms with d. Residues, ends and D or L forms follow the SMILES beside them. Groups on a side chain read outwards from the residue. *: point of attachment. X1 = CCCCCCCCCCCCCCCC(=O)N[C@@H](CCC(=O)N[C@@H](CCC(=O)N[C@@H](CCC(=O)NCCCOCCOCCOCCCNC(=O)CCC(=O)NCCCOCCOCCOCCCNC(=O)CCC(=O)NCCCOCCOCCOCCCN*)C(=O)O)C(=O)O)C(=O)O; X2 = CCCCCCCCCCCCCCCC(=O)N[C@@H](CCC(=O)N[C@@H](CCC(=O)N[C@@H](CCC(=O)NCCCOCCOCCOCCCNC(=O)CCC(=O)NCCCOCCOCCOCCCN*)C(=O)O)C(=O)O)C(=O)O; Suc = O=C(CCC(=O)[*:2])[*:1]; αMeK = C[C@](N)(CCCCN)C(=O)O; Aib = CC(C)(N)C(=O)O

One series addresses T1, RXFP1 (Homo sapiens, UniProt Q9HBX9).
T1 construct: OVCAR5 cells expressing endogenous RXFP1; endogenous in cells; host or cells: OVCAR5
T1 sequence (Q9HBX9 1-757): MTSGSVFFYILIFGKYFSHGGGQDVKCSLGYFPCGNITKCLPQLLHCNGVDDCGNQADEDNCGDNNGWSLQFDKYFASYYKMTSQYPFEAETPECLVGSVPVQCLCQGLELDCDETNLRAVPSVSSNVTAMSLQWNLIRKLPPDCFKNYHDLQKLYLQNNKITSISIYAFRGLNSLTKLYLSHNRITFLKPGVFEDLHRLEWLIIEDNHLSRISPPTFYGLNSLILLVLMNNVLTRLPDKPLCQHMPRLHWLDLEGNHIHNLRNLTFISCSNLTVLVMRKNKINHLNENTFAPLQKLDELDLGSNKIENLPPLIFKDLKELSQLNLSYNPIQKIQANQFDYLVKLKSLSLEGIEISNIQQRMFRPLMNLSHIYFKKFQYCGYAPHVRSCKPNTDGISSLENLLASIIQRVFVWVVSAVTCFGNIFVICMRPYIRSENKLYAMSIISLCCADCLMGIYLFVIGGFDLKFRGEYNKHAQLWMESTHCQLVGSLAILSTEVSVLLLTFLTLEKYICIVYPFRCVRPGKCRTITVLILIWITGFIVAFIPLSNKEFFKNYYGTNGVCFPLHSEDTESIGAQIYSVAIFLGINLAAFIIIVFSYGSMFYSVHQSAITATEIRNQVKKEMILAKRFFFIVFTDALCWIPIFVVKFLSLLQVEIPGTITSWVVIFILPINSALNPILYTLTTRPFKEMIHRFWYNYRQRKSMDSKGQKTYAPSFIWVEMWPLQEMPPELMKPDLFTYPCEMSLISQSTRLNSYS
Briefly: OVCAR5 cAMP assay (HTRF). Type of series: cell-based. As to conditions: for EC50: OVCAR 5 cells expressing endogenous RXFP1, cAMP readout; for Emax: OVCAR 5 cells, maximal cAMP relative to H2-relaxin. The gist of the method: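 Endogenous RXFP1 in OVCAR5 cells, pretreated 40 min at 37° C with 1 mM IBMX, then exposed to increasing peptide concentrations in serum-free medium for 30 min at 37° C. cAMP read by HTRF; EC50 by variable-slope sigmoidal fit, Emax as % of H2-relaxin maximal cAMP in same run.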
(Changes in cAMP serve as a functional read-out for many G protein-coupled receptors.)

Series [1] is described as follows: Stability in human plasma. The class given is in vitro ADME. Conditions: for Human Plasma stability % remaining: T = 0, 37° C., 5 μM; for remaining at 1 h, 5 μM / remaining at 4 h, 5 μM: human, plasma (sodium or lithium heparin), 37° C. The method, then:
(§1) Prior to the testing of stability in plasma (or blood) of a peptide batch, its purity (HPLC-UV) was determined.
Rat and Human plasma: anti-coagulant sodium or lithium heparin.
(§2) 100 μM solution of study compound in 50 mM phosphate buffer pH 7.4.
(§3) 950 μL plasma (or blood) was pre-incubated for 5 min at 37° C. 50 μL of compound stock solution was added. Final compound concentration=5 μM. Vortex and transfer 150 μL plasma (or blood) into an Eppendorf for each time point. The time points […] were carried out in duplicate for each species.
(§4) After incubation, 150 μL plasma (or blood) was extracted with 600 μL Acetonitrile containing 1% TFA. Said mixture was then vortexed and centrifuged 10 min at 14600 rpm. 200 μL supernatant was dried under N2. Sample was then reconstituted in 200 μL of H2O/CH3CN 98/2+0.1% FA+50 ng/ml Labetalol and analyzed using the analytical system used in solubility and stability studies.
(§5) For determination of the amount of the remaining peptide, the peak areas of the target compound at t0 and each time point […] were compared, resulting in “% remaining peptide”, following the equation: % remaining peptide=[(peak area peptide time)×100]/peak area peptide t0. The stability was expressed as “% remaining peptide”.

A short description of another series: Stability in rat blood. The class given is in vitro ADME. Conditions: for Rat blood stability % remaining: T = 0, 37° C., 5 μM; for remaining at 1 h, 5 μM / remaining at 4 h, 5 μM: rat, whole blood (sodium or lithium heparin), 37° C. The method, then: as §1
Rat and Human blood: anti-coagulant sodium or lithium heparin.
as §2, §3, §4, §5

A short description of a further series: in vivo. On the set-up: species or system Sprague Dawley rats. Conditions: Sprague Dawley, rat; for bioavailability / Cmax / Tmax: sc; for Cmax / Tmax: 3 mg/kg. The method, then:
Prior to the testing of a peptide batch, its purity (HPLC-UV) was determined. Dose was corrected for presence of salts, solvent and purity. Bioanalytical screening method for quantification of peptides in rat: Sprague Dawley rats were dosed with study peptide at a dose of 1 mg/kg intravenously (i.v.) or 3 mg/kg subcutaneously (s.c.) as a solution in PBS (0.2 mg/ml and 0.6 mg/ml respectively). Blood samples were collected after: 0.083, 0.25, 0.5, 1, 2, 4, 8, 24, 48 and 72 h (i.v. route) and 0.25, 0.5, 1, 2, 4, 6, 8, 10, 24, 48 and 72 h (s.c route) post application. Plasma samples were analyzed after protein precipitation via liquid chromatography mass spectrometry (LC/MS). PK parameters and half-life were calculated using Phoenix 64 (WinNonlin 6.4)-Pharsight (Certara™) (non-compartment model). Values below the limit of quantification (BLQ) were replaced by zero for subsequent calculations and PK analysis. T½: in-vivo half-life, time required for test compound plasma concentration to be divided by two during the PK experiment. C0: Extrapolated test compound plasma concentration at t=0 time point (i.v. route). Cmax: maximal test compound plasma concentration at the indicated time point (s.c. route). Tmax: Time point where Cmax was attained. F %: s.c. vs i.v. bioavailability, dose-corrected area under curve (AUC) s.c. route divided by AUC i.v.

On RXFP1, `CCCCCCCCCCCCCCCC(=O)N[C@@H](CCC(=O)N[C@@H](CCC(=O)N[C@@H](CCC(=O)NCCCOCCOCCOCCCNC(=O)CCC(=O)NCCCOCCOCCOCCCNC(=O)CCC(=O)NCCCOCCOCCOCCCNC(=O)CCC(=O)NCCCC[C@H](NC(=O)CNC(=O)[C@H](CCC(=O)O)NC(=O)C(C)(C)NC(=O)C(C)(C)NC(=O)[C@@H](NC(=O)[C@H](CCCCNC(C)=O)NC(=O)[C@H](C)NC(=O)[C@H](CCCNC(=N)N)NC(=O)[C@@H](NC(=O)[C@H](CCCCN)NC(=O)[C@H](CCC(=O)O)NC(=O)[C@H](CCCNC(=N)N)NC(=O)CNC(=O)[C@H](CCC(=O)O)NC(=O)[C@H](CC(C)C)NC(C)=O)C(C)C)[C@@H](C)CC)C(=O)N[C@@H](CO)C(=O)N[C@H](C(=O)N[C@@H](Cc1ccccc1)C(=O)N[C@@H](CO)C(=O)N[C@@](C)(CCCCN)C(=O)N[C@@H](CCCNC(=N)N)C(=O)N[C@@H](C)C(=O)N[C@@H](CCCCNC(C)=O)C(N)=O)[C@@H](C)O)C(=O)O)C(=O)O)C(=O)O` [compound 3] (Ac-LEGREKVRAK(Ac)I[Aib][Aib]EGK([Suc-X1])STFS[αMeK]RAK(Ac)-NH2) displayed a 50% effective concentration (EC50) of 0.34 nM and an Emax of 97%. Further, in series [1], the “Human Plasma stability % remaining” value was found to be 99%; the fraction remaining at 1 h, 5 μM was 95%; the amount remaining at 4 h, 5 μM worked out at 100%. In addition, in “Stability in rat blood”, the “Rat blood stability % remaining” value was 100* %; the amount remaining at 1 h, 5 μM worked out at 95%; the amount remaining at 4 h, 5 μM stood at 84%. Also, in the series “in vivo” (iv, 1 mg/kg), the C0 was 3200 nM and the “T½ (h), in-vivo half-life” value was determined as 7.8 h. In addition, in the series “in vivo”, the bioavailability was found to be 83%, the highest concentration (Cmax) was found to be 2300 nM and the Tmax amounted to 8 h.
On to `CCCCCCCCCCCCCCCC(=O)N[C@@H](CCC(=O)N[C@@H](CCC(=O)N[C@@H](CCC(=O)NCCCOCCOCCOCCCNC(=O)CCC(=O)NCCCOCCOCCOCCCNC(=O)CCC(=O)NCCCC[C@H](NC(=O)CNC(=O)[C@H](CCC(=O)O)NC(=O)C(C)(C)NC(=O)C(C)(C)NC(=O)[C@@H](NC(=O)[C@H](CCCCNC(C)=O)NC(=O)[C@H](C)NC(=O)[C@H](CCCNC(=N)N)NC(=O)[C@@H](NC(=O)[C@H](CCCCN)NC(=O)[C@H](CCC(=O)O)NC(=O)[C@H](CCCNC(=N)N)NC(=O)CNC(=O)[C@H](CCC(=O)O)NC(=O)[C@H](CC(C)C)NC(C)=O)C(C)C)[C@@H](C)CC)C(=O)N[C@@H](CO)C(=O)N[C@H](C(=O)N[C@@H](Cc1c[nH]c2ccccc12)C(=O)N[C@@H](CO)C(=O)NC(C)(C)C(=O)N[C@@H](CCCNC(=N)N)C(=O)N[C@@H](CCCCN)C(=O)N[C@@H](CCCCNC(C)=O)C(N)=O)[C@@H](C)O)C(=O)O)C(=O)O)C(=O)O` [compound 4] (Ac-LEGREKVRAK(Ac)I[Aib][Aib]EGK([Suc-X2])STWS[Aib]RKK(Ac)-NH2), for which, at RXFP1, the EC50 was 1.5 nM and the maximal response (Emax) was 89%. Besides, in series [1], the “Human Plasma stability % remaining” value worked out at 100%; the amount remaining at 1 h, 5 μM turned out to be 100%; the fraction remaining at 4 h, 5 μM turned out to be 100%. Also, in the series “Stability in rat blood”, the “Rat blood stability % remaining” value was 100* %; the amount remaining at 1 h, 5 μM amounted to 102%; the fraction remaining at 4 h, 5 μM came out at 86%. Further, in “in vivo” (iv, 1 mg/kg), the C0 worked out at 2750 nM and the half-life is 8.71 h. In “in vivo”, the bioavailability was 69%, the peak level (Cmax) was 1990 nM and the Tmax came out at 8 h.

A word on the EC50: it is the concentration giving half of the maximal effect. As usually defined, the Emax is the greatest response seen or fitted, relative to the assay's reference. By bioavailability is commonly meant the share of a dose that reaches the circulation, judged against a reference dose that is usually intravenous. Read a low bioavailability as poor availability. The Cmax is the highest concentration seen after dosing. For orientation: Tmax means the time at which the peak concentration occurs. As a reminder, the half-life is the time in which the quantity being followed falls by half. Read a low half-life as fast loss.
